Measured values as given in patent US8686048B2, “Immunomodulator and anti-inflammatory compounds” (Rhizen Pharmaceuticals SA, priority 2010, dated 2014).

Tests used:
IL-17 = experiment: Inhibition of IL-17 release from mouse splenocytes (PMA + ionomycin, ELISA); assay type: cell-based, Balb/c mice; settings: Splenocyte, 10 μM, 3 h
Description: 2. Inhibition of IL-17 Release from Mouse Splenocytes:
Splenocytes isolated from Balb/c mice were re-suspended in RPMI medium at a concentration of 1×10^6 cells/ml and seeded in a 6 well plate. Cells were incubated with desired concentrations of the inhibitor for 15 min prior to induction with 10 ng/ml PMA+1 μM ionomycin. After a 3 h incubation, supernatant was collected and analyzed for IL-17 concentration using an ELISA kit. Data were analyzed using GraphPad Prism. IC50 values for each compound were determined based on the percent inhibition due to the test compound compared to the control.

h-DHODH = biological target: T1, h-DHODH (Homo sapiens, UniProt Q02127); experiment: Dihydro-orotate dehydrogenase inhibition assay (U937 membrane preparations, DCIP reduction); assay type: biochemical; settings: U937 membrane preparation; for inhibition at 0.3 µM: compound tested at 0.3 uM (footnote *)
T1 construct: endogenous in cells; host or cells: U937 cells (membrane fraction, solubilised with 1% octyl glucoside)
T1 sequence (Q02127 whole entry): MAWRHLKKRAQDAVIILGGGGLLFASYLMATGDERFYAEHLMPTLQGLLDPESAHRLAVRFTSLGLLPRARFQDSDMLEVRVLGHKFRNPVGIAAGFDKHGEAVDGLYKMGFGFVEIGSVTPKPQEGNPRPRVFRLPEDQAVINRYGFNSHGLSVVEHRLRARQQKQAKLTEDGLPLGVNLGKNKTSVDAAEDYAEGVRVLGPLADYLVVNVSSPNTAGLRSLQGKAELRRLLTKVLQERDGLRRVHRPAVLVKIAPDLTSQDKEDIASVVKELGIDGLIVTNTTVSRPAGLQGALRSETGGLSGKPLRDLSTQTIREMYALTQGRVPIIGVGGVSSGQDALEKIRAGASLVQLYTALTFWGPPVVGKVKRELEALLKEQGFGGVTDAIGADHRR
Description: Dihydro-Orotate Dehydrogenase Inhibition Assay
Dihydro-orotate dehydrogenase (DHODH) catalyzes the […] of dihydro-orotate to orotate during de novo biosynthesis of pyrimidines Inhibition of DHODH activity in U937 membrane preparations was measured by the dihydro-orotate driven reduction of 2,6 dichloroindophenol (DCIP).
U937 cells were homogenized in 20 mM Tris/HCl (pH 7.2) containing 1 mM EDTA. […] Following washes, the pellet was dissolved in 20 mM Tris/HCl containing 150 mM NaCl, 1 mM EDTA, and 1% octyl glucoside on ice for 1 h. Particulate matter was removed by centrifugation at 100000×g for 1 h at 4° C. […] The mixture was incubated at 37° C. for 4 h before measuring the change in absorbance on a plate reader (BMG Labtech., Germany) at 600 nm. Data were analyzed using GraphPad Prism. IC50 for each compound was determined based on the percent inhibition of dihydro-orotate […].

O=C(O)c1ccccc1C(=O)Nc1c(F)cc(-c2ccccc2F)cc1F [Example 32, 2-(2′,3,5-Trifluorobiphenyl-4-ylcarbamoyl)benzoic acid] showed a melting point of 152.2 to 156.3 °C, an inhibition at 10 µM (IL-17) of 11.8% and an inhibition at 1 µM (h-DHODH; 1 uM) of 58.9%.

Compound COc1ccc(Cl)c(-c2ccc(NC(=O)c3ccccc3C(=O)O)cc2F)c1 [Example 79, 2-(2′-chloro-2-fluoro-5′-methoxybiphenyl-4-ylcarbamoyl)benzoic acid] has a melting point of 185 to 187 °C and an inhibition at 10 µM (IL-17) of 24.6%.

Work on CCOc1cccc(-c2cc(F)c(NC(=O)c3nccnc3C(=O)O)c(F)c2)c1 [Example 7, 3-(3,5-Difluoro-3′-ethoxybiphenyl-4-ylcarbamoyl)pyrazine-2-carboxylic acid] yielded a melting point of 133.4 to 137.3 °C, an inhibition at 10 µM (IL-17) of 8.58% and an inhibition at 1 µM (h-DHODH; 1 uM) of 4.53%.

For O=C(O)c1ccccc1C(=O)Nc1ccc(-c2cccc(OC(F)(F)F)c2)cc1F [Example 22, 2-[3-Fluoro-3′-(trifluoromethoxy)biphenyl-4-ylcarbamoyl]benzoic acid], the melting point was 128.3 to 132.1 °C, the inhibition at 10 µM (IL-17) was 12.9% and the inhibition at 1 µM (h-DHODH; 1 uM) was 41.8%.

In the case of CCSc1cccc(-c2c(F)cc(NC(=O)c3ccccc3C(=O)O)cc2F)c1 [Example 89, 2-[3′-(ethylthio)-2,6-difluorobiphenyl-4-ylcarbamoyl]benzoic acid], the melting point is reported as 162 to 167 °C and the inhibition at 10 µM (IL-17) is reported as 25.5%.

CCCOc1cccc(-c2cc(F)c(NC(=O)c3ccccc3C(=O)O)c(F)c2)c1 [Example 26, 2-(3,5-Difluoro-3′-propoxybiphenyl-4-ylcarbamoyl)benzoic acid] gave a melting point of 128.6 to 132.1 °C, an inhibition at 10 µM (IL-17) of 8.7% and an inhibition at 1 µM (h-DHODH; 1 uM) of 85.3%. The IC50 (h-DHODH) was 0.122 µM.

For CCOc1cccc(-c2cc(F)c(NC(=O)c3nccnc3C(=O)O)c(Cl)c2)c1 [Example 11, 3-(3-Chloro-3′-ethoxy-5-fluorobiphenyl-4-ylcarbamoyl)pyrazine-2-carboxylic acid], the melting point was 148 to 153 °C and the inhibition at 10 µM (IL-17) was 2.62%.

CC(C)COc1cccc(-c2cc(F)c(NC(=O)c3ccccc3C(=O)O)c(F)c2)c1 [Example 34, 2-(3,5-Difluoro-3′-isobutoxybiphenyl-4-ylcarbamoyl)benzoic acid] showed a melting point of 112.6 to 116.4 °C, an inhibition at 10 µM (IL-17) of 5.96% and an inhibition at 1 µM (h-DHODH; 1 uM) of 95.8%. The IC50 (h-DHODH) was 0.0625 µM.

Compound COc1cccc(-c2cc(F)c(NC(=O)c3cc(Cl)c(Cl)cc3C(=O)O)c(F)c2)c1 [Example 16, 4,5-Dichloro-2-(3,5-difluoro-3′-methoxybiphenyl-4-ylcarbamoyl)benzoic acid] has a melting point of 158.6 to 162.2 °C, an inhibition at 10 µM (IL-17) of 12.3% and an inhibition at 1 µM (h-DHODH; 1 uM) of 28%.

O=C(O)c1cc(Cl)c(Cl)cc1C(=O)Nc1c(F)cc(-c2ccccc2Cl)cc1F [Example 30, 4,5-Dichloro-2-(2′-chloro-3,5-difluorobiphenyl-4-ylcarbamoyl)benzoic acid] gave a melting point of 202 to 205.5 °C, an inhibition at 10 µM (IL-17) of 10.3% and an inhibition at 1 µM (h-DHODH; 1 uM) of 68%.

In the case of CCCOc1cccc(-c2ccc(NC(=O)c3ccccc3C(=O)O)cc2)c1 [Example 81, 2-(3′-propoxybiphenyl-4-ylcarbamoyl)benzoic acid], the melting point is reported as 152 to 154 °C, the inhibition at 10 µM (IL-17) is reported as 23% and the inhibition at 0.3 µM (h-DHODH) is reported as 11.2%.

O=C(O)c1ccccc1C(=O)Nc1c(F)cc(-c2ccccc2Cl)cc1F [Example 8, 2-(2′-Chloro-3,5-difluorobiphenyl-4-ylcarbamoyl)benzoic acid] gave a melting point of 143.5 to 145.1 °C, an inhibition at 10 µM (IL-17) of 35.4% and an inhibition at 1 µM (h-DHODH; 1 uM) of 85.8%. The IC50 (h-DHODH) was 0.09 µM.

Work on CCc1c[nH]c2ccc(-c3cc(F)c(NC(=O)c4ccccc4C(=O)O)c(Cl)c3)cc12 [Example 100, 2-[2-Chloro-4-(3-ethyl-1H-indol-5-yl)-6-fluorophenylcarbamoyl]benzoic acid] yielded a melting point of 98 to 102 °C and an inhibition at 1 µM (h-DHODH; 1 uM) of 58.7%.

O=C(O)c1ccccc1C(=O)Nc1ccc(-c2ccccc2Cl)cc1 [Example 86, 2-(2′-chlorobiphenyl-4-ylcarbamoyl)benzoic acid] showed a melting point of 243 to 247 °C, an inhibition at 10 µM (IL-17) of 23.8% and an inhibition at 0.3 µM (h-DHODH) of 33.6%.

CCCCOc1cccc(-c2c(F)cc(NC(=O)c3ccccc3C(=O)O)cc2F)c1 [Example 98, 2-(3′-Butoxy-2,6-difluorobiphenyl-4-ylcarbamoyl)benzoic acid] showed a melting point of 181.1 to 184.2 °C and an inhibition at 1 µM (h-DHODH; 1 uM) of 31%.

O=C(O)c1ccccc1C(=O)Nc1ccc(-c2cccc(OC3CC3)c2)cc1 [Example 95, 2-(3′-cyclopropoxybiphenyl-4-ylcarbamoyl)benzoic acid] showed a melting point of 150.2 to 154.3 °C and an inhibition at 1 µM (h-DHODH; 1 uM) of 1.49%.

For CCOc1cccc(-c2ccc(NC(=O)c3ccccc3C(=O)O)c(F)c2)c1 [Example 4, 2-(3′-Ethoxy-3-fluorobiphenyl-4-ylcarbamoyl)benzoic acid], the melting point was 151 to 157 °C, the inhibition at 10 µM (IL-17) was 11.2% and the inhibition at 1 µM (h-DHODH; 1 uM) was 43%.

COc1cccc(-c2cc(F)c(NC(=O)c3ccccc3C(=O)O)c(F)c2)c1 [Example 1, 2-(3,5-Difluoro-3′-methoxybiphenyl-4-ylcarbamoyl)benzoic acid] showed a melting point of 168 to 173 °C, an inhibition at 10 µM (IL-17) of 6.13% and an inhibition at 1 µM (h-DHODH; 1 uM) of 53.3%. The IC50 (h-DHODH) was 0.741 µM.

For CC(C)Oc1cccc(-c2cc(F)c(NC(=O)c3ccccc3C(=O)O)c(F)c2)c1 [Example 25, 2-(3,5-Difluoro-3′-isopropoxybiphenyl-4-ylcarbamoyl)benzoic acid], the melting point was 122 to 125 °C, the inhibition at 10 µM (IL-17) was 17.5% and the inhibition at 1 µM (h-DHODH; 1 uM) was 60.2%.

CCCOc1cccc(-c2ccc(NC(=O)c3ccccc3C(=O)O)c(F)c2)c1 [Example 80, 2-(3-fluoro-3′-propoxybiphenyl-4-ylcarbamoyl)benzoic acid] gave a melting point of 116 to 119 °C, an inhibition at 10 µM (IL-17) of 20.1% and an inhibition at 0.3 µM (h-DHODH) of 47.6%.

Work on O=C(O)c1ccccc1C(=O)Nc1c(F)cc(-c2ccccc2)cc1F [Example 10, 2-(3,5-Difluorobiphenyl-4-ylcarbamoyl)benzoic acid] yielded a melting point of 161.2 to 165.7 °C, an inhibition at 10 µM (IL-17) of 6.82% and an inhibition at 1 µM (h-DHODH; 1 uM) of 46.8%.

For O=C(O)c1ccccc1C(=O)Nc1ccc(-c2cccc(OC3CC3)c2)cc1F [Example 94, 2-(3′-cyclopropoxy-3-fluorobiphenyl-4-ylcarbamoyl)benzoic acid], the melting point was 134.5 to 137.5 °C and the inhibition at 1 µM (h-DHODH; 1 uM) was 13.9%.

COc1cccc(-c2ccc(NC(=O)c3ccccc3C(=O)O)cc2)c1 [Example 87, 2-(3′-methoxybiphenyl-4-ylcarbamoyl)benzoic acid] gave a melting point of 243 to 247 °C, an inhibition at 10 µM (IL-17) of 20.9% and an inhibition at 0.3 µM (h-DHODH) of 30.2%.

With CCCCOc1cccc(-c2ccc(NC(=O)c3ccccc3C(=O)O)cc2)c1 [Example 96, 2-(3′-butoxybiphenyl-4-ylcarbamoyl)benzoic acid] the melting point was 155 to 157 °C.

O=C(O)c1ccccc1C(=O)Nc1c(Cl)cc(-c2ccccc2Cl)cc1Cl [Example 33, 2-(2′,3,5-Trichlorobiphenyl-4-ylcarbamoyl)benzoic acid] gave a melting point of 182 to 185 °C and an inhibition at 10 µM (IL-17) of 14%.

Work on CCCCOc1cccc(-c2ccc(NC(=O)c3ccccc3C(=O)O)c(F)c2)c1 [Example 92, 2-(3′-butoxy-3-fluorobiphenyl-4-ylcarbamoyl)benzoic acid] yielded a melting point of 102 to 105 °C and an inhibition at 1 µM (h-DHODH; 1 uM) of 9.65%.

CCCCOc1cccc(-c2c(F)c(F)c(NC(=O)c3ccccc3C(=O)O)c(F)c2F)c1 [Example 91, 2-(3′-butoxy-2,3,5,6-tetrafluorobiphenyl-4-ylcarbamoyl)benzoic acid] showed a melting point of 215.5 to 218.5 °C and an inhibition at 1 µM (h-DHODH; 1 uM) of 42.4%.

In the case of CCCCOc1cccc(-c2ccc(NC(=O)c3ccccc3C(=O)O)cc2F)c1 [Example 97, 2-(3′-butoxy-2-fluorobiphenyl-4-ylcarbamoyl)benzoic acid], the melting point is reported as 164 to 167 °C.

CCCc1c[nH]c2ccc(-c3cc(F)c(NC(=O)c4ccccc4C(=O)O)c(F)c3)cc12 [Example 99, 2-[2,6-Difluoro-4-(3-propyl-1H-indol-5-yl)phenylcarbamoyl]benzoic acid] showed a melting point of 76 to 80 °C and an inhibition at 1 µM (h-DHODH; 1 uM) of 42.6%.

In the case of Cc1c[nH]c2ccc(-c3cc(F)c(NC(=O)c4ccccc4C(=O)O)c(F)c3)cc12 [Example 63, 2-[2,6-difluoro-4-(3-methyl-1H-indol-5-yl)phenylcarbamoyl]benzoic acid], the inhibition at 10 µM (IL-17) is reported as 0%, the inhibition at 1 µM (h-DHODH; 1 uM) is reported as 76.7% and the IC50 (h-DHODH) is reported as 0.022 µM.

In the case of O=C(O)c1ccccc1C(=O)Nc1c(F)cc(-c2cccc(OC(F)(F)F)c2)cc1F [Example 93, 2-[3,5-difluoro-3′-(trifluoromethoxy)biphenyl-4-ylcarbamoyl]benzoic acid], the melting point is reported as 158 to 160 °C and the “h-DHODH % inhibition 1 uM” value (h-DHODH; 1 uM) is reported as 10.46%.

O=C(O)c1ccccc1C(=O)Nc1c(F)cc(-c2ccc3c(c2)CCO3)cc1F [Example 52, 2-[4-(2,3-Dihydrobenzofuran-5-yl)-2,6-difluorophenylcarbamoyl]benzoic acid] showed an inhibition at 10 µM (IL-17) of 13.8% and an inhibition at 1 µM (h-DHODH; 1 uM) of 12.8%.
